In patent EP4755403A1, “ANTI-PSMA ANTIBODY-DRUG CONJUGATE AND PHARMACEUTICAL USE THEREOF” (Jiangsu Hengrui Pharmaceuticals Co., Ltd., priority 2023, dated 2025):

Legend:
Experiment in all cases: Cell killing activity of ADC molecules (CellTiter-Glo)
Assay type in all cases: cell-based, human
Settings in all cases: 5 days
22RV1 cells = test system: 22RV1 cells
Protocol: (§1) LNCaP (ATCC, CRL-1740), 22RV1 (ATCC, CRL-2505), and PC-3 (ATCC, CRL-1435) cells were digested with trypsin, neutralized with a fresh medium, centrifuged at 1000 rpm, and then resuspended in a medium. After the cells were counted, the density of the cell suspensions was adjusted to […], and the cells were plated onto a 96-well plate. The adjusted cell suspension (135 µL) was added to each well with […]. Only the middle 60 wells were used for plating, and six wells in the twelfth column were taken as pure medium controls without cells. An equal volume of PBS was added to the other wells. The cells were incubated at 37 °C with 5% CO2 for 16 h.
(§2) Then 20 µL of the dilution was added to the cell plate described above, and the plate was incubated in an incubator (37 °C, 5% CO2) for 5 days. […] Subsequently, 9-point serial dilutions at a 1:3 ratio were performed with PBS. Then 1 µL of the dilution was added to 20 µL of RPMI-1640, and the mixture was transferred to a 96-well cell culture plate. The plate was incubated in an incubator (37 °C, 5% CO2) for 5 days. In the 96-well cell culture plate, 80 µL of the CellTiter-Glo reagent was added to each well, and the plate was left to stand in the dark at room temperature for 10-15 min. The chemiluminescence signal values were read on Victor3, and the data were processed using GraphPad software.
(§3) On the fifth day, the culture plate was taken out and allowed to return to room temperature. The CellTiter-Glo assay solution (75 µL) was added to each well, and the plate was left to stand in the dark at room temperature for 10 min. A Backseal membrane was attached to the bottom of the cell culture plate. The plate was placed on a microplate reader Victor 3, and luminescence signal values were read. Curve fitting was performed according to the log values of concentrations of the test compounds to the corresponding signal values using Graphpad Prism software, and IC50 values were calculated. The maximum value of killing was defined as the maximum killing rate (Imax) of the compound. The killing rate was calculated as follows: [formula]

PC-3 cells = test system: PC-3 cells
Protocol: as §1, §2, §3

LNCaP cells = test system: LNCaP cells
Protocol: as §1, §2, §3

[1] = Homo sapiens, 120 h, read-out: IC50 (killing effect)

Which “Imax (maximum killing rate)” value (22RV1 cells) does the source give for `CC[C@@]1(O)C(=O)OCc2c1cc1n(c2=O)Cc2c-1nc1cc(F)c(C)c3c1c2[C@@H](NC(=O)[C@H](O)C1CC1)CC3` [Compound 2-B] here?
The value was 98.07%.

And the IC50 (22RV1 cells; [1])?
The IC50 was 0.534 nM.

What about the “Imax (maximum killing rate)” value (PC-3 cells) of the same molecule?
The value was 92.78%.

What about the IC50 (PC-3 cells; [1]) of the same molecule?
The IC50 was 1.54 nM.

What about the “Imax (maximum killing rate)” value (LNCaP cells) of the same molecule?
Its value is 97.13%.

What about the IC50 (LNCaP cells; [1]) of the same molecule?
Its IC50 is 0.535 nM.
